# In patent US20100278875A1, “PROSTAGLANDIN E2 (PGE2) AS AN ADJUVANT IN MONOCLONAL ANTIBODY GENERATION” (priority 2006, published 2010):
# How the values were obtained:
# [1] = tested on: nominal immunogen (AgX); assay: Antibody titers in Balb/c mice against a nominal immunogen (AgX) in the presence or absence of PGE2; format: in vivo; conditions: following 2 injections, versus PBS
# Procedure: (§1) To generate antibody against ovalbumin (OVA), Balb/c mice were immunized with 25 ug of OVA emulsified in adjuvant. To test the effect of PGE2, the mice were injected with 1 nmol PGE2 intraperitoneally (i.p.) 3 hours prior to immunization, and again at 24 and 48 hours post immunization. For the control group, the mice were injected (i.p.) with an equal volume of PBS 3 hours prior to immunization. The mice were boosted with 25 ug OVA on Day 14 (i.p.) and Day 28 (subcutaneously). Anti-OVA titers were determined on Day 27 and Day 35.
# (§2) To assess the effect of PGE2 on generating antibodies against difficult targets, a nominal immunogen (AgX) known to be difficult to raise an antibody response was used. Briefly, Balb/c mice were immunized following the same schedule outlined above with either 25 ug of OVA or AgX and titered on Day 27 following 2 i.p. injections. […] Therefore, PGE2 enhances immune responses in Balb/c mice and may be used to shorten immunization time lines.
# Given the difficult nature of this immunogen to generate antibodies against, this is a significant increase. Therefore, PGE2 can be used in Balb/c mice to enhance immune responses not only to strong immunogens, but also to difficult/nominal immunogens.
# [2] = tested on: ovalbumin (OVA); assay: Anti-OVA antibody titers in Balb/c mice immunized with OVA in the presence or absence of PGE2; format: in vivo
# Procedure: as §1, §2
smiles,measurement,setting,value
"CCCCC[C@H](O)/C=C/[C@H]1[C@H](O)CC(=O)[C@@H]1C/C=C\CCCC(=O)O [PGE2, Prostaglandin E2]",increase of anti-AgX titers,[1],2-3 fold
same,effect on anti-OVA titers (in words),"[2]; Table 1 experiment, Day 27 and Day 35",significantly enhanced anti-OVA titers
same,effect on anti-OVA titers (in words),"[2]; Table 2 experiment, following only 2 immunogen injections",enhanced anti-OVA titers
